Reference: patent publication US12371454B2, “Cyclic peptide compound having Kras inhibitory action” (priority 2019, dated 2025)
Starred links: 1 amine or outer side, 2 acyl side, 3 side chain; linkers in the order of their positions; H or OH if unused. Positions of bridges follow the written chain, without caps; N, C: chain ends. Non-standard residues stand in square brackets, D forms with d. Residues, ends and D or L forms follow the SMILES beside them. *: point of attachment. hPhe(3-Cl-4-CF3) = N[C@@H](CCc1ccc(C(F)(F)F)c(Cl)c1)C(=O)O; 3Oxa8azabicyclo(3.2.1)octane = C1CC2COCC1N2*; NMeAbu(4,4,4-F3) = CN[C@@H](CC(F)(F)F)C(=O)O; NMePhe(4-Me) = CN[C@@H](Cc1ccc(C)cc1)C(=O)O; NMeNle(6-CHF2) = CN[C@@H](CCCCC(F)F)C(=O)O; NMedβ3hAla = C[C@H](CC(=O)[*:2])N(C)[*:1]; NMePhe(2-F) = CN[C@@H](Cc1ccccc1F)C(=O)O; hPhe(4-F) = N[C@@H](CCc1ccc(F)cc1)C(=O)O; Morpholine(3S-CO) = O=C(O)[C@@H]1COCCN1; NMeGly(cBu) = CN[C@H](C(=O)O)C1CCC1; NMeCha = CN[C@@H](CC1CCCCC1)C(=O)O; X2 = C=CC[C@](C)(N[*:1])C(=O)[*:2]; Ala(cPr) = N[C@@H](CC1CC1)C(=O)O; NMeChg = CN[C@H](C(=O)O)C1CCCCC1; NMeI = CC[C@H](C)[C@H](NC)C(=O)O; NMeD = CN[C@@H](CC(=O)O)C(=O)O; NMeL = CN[C@@H](CC(C)C)C(=O)O; NMehSer = CN[C@@H](CCO)C(=O)O; NMeV = CN[C@H](C(=O)O)C(C)C; d(β3hA) = C[C@@H](N)CC(=O)O; NMeS = CN[C@@H](CO)C(=O)O; Iva = CC[C@](C)(N)C(=O)O; NMeA = CN[C@@H](C)C(=O)O; Piperidide = C1CCN(*)CC1; Pyrrolidide = C1CCN(*)C1; Ac5c = NC1(C(=O)O)CCCC1; Aze = O=C(O)[C@@H]1CCN1; Ac4c = NC1(C(=O)O)CCC1; Cyclobutyl = C1CC(*)C1; Sar = CNCC(=O)O

Experiments:
[1] = target: T1, Kras and SOS1 (biotin-tagged human Kras loaded with GDP, His-tagged human SOS1) (Homo sapiens, UniProt P01116, G12D); assay: Protein-protein interaction inhibition between Kras and SOS1 (KrasGl2D-SOS PPI) using AlphaScreen; assay type: binding; details: AlphaScreen; biotin-tagged human Kras loaded with GDP, His-tagged human SOS1; read-out: KRAS G12D-SOS PPI IC50
T1 construct: made in house; host or cells: E. coli (stated for Kras only)
How it was run: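 Binding between SOS1 and Kras is detected as bead-proximity luminescence: illuminate Ni-conjugated donors (680 nm), collect 520-620 nm emission from streptavidin-conjugated acceptors; Kras carries biotin and GDP loaded after purification, SOS1 carries a His tag.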

[2] = test system: Human pancreatic cancer cell line AsPC-1; assay: Measurement of AsPC-1 cell growth inhibition (AsPC-1 CGI); assay type: cell-based; details: 96 h
How it was run: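 AsPC-1 cells in 15% FBS RPMI-1640 were exposed to test compound for 96 hours at 37° C, with CellTiter-Glo as endpoint.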

T1 sequence (P01116 1-188 isoform P01116-2 G12D): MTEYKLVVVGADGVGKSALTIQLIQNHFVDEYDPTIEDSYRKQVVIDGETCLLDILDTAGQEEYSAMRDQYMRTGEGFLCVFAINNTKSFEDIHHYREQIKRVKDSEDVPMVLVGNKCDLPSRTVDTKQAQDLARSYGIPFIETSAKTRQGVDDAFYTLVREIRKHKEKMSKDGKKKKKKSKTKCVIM

| SMILES | IC50 [1] [nM] | IC50 [2] [nM] |
| --- | --- | --- |
| CC[C@H](C)[C@@H]1NC(=O)[C@H](CC(C)C)N(C)C(=O)C[C@@H](C)N(C)C(=O)[C@H](C(C)C)N(C)C(=O)C2(CCCC2)NC(=O)[C@@H]2CCCN2C(=O)[C@H](CCc2ccc(C(F)(F)F)c(Cl)c2)NC(=O)CN(C)C(=O)[C@H](CC2CCCCC2)N(C)C(=O)CN(C)C(=O)CN(C)C1=O [Compound 608] (cyclo([Ac5c][NMeV][NMedβ3hAla][NMeL]I[Sar][Sar][NMeCha][Sar][hPhe(3-Cl-4-CF3)]P)) | 5.9 | 50 to 100 |
| CC[C@H](C)[C@@H]1NC(=O)[C@H](CC(C)C)N(C)C(=O)C[C@@H](C(=O)N(C)C)N(C)C(=O)[C@H]([C@@H](C)CC)N(C)C(=O)C2(CCCC2)NC(=O)[C@H](Cc2ccccc2F)N(C)C(=O)[C@H](CCc2ccc(C(F)(F)F)c(Cl)c2)NC(=O)CN(C)C(=O)[C@H](Cc2ccc(C)cc2)N(C)C(=O)[C@@H]2CCN2C(=O)[C@H](C)N(C)C1=O [Compound 616] ([NMeL]I[NMeA][Aze][NMePhe(4-Me)][Sar][hPhe(3-Cl-4-CF3)][NMePhe(2-F)][Ac5c][NMeI][NMeD]-NMe2; lactam N-11) | 3.9 | 50 to 100 |
| CC[C@H](C)[C@@H]1NC(=O)[C@H](C)N(C)C(=O)C[C@@H](C(=O)N2CCCCC2)N(C)C(=O)[C@H](C2CCCCC2)N(C)C(=O)C2(CCCC2)NC(=O)[C@@H]2CCCN2C(=O)[C@H](CCc2ccc(F)cc2)NC(=O)CN(C)C(=O)[C@H](CC2CCCCC2)N(C)C(=O)CN(C)C(=O)CN(C)C1=O [Compound 618] ([NMeA]I[Sar][Sar][NMeCha][Sar][hPhe(4-F)]P[Ac5c][NMeChg][NMeD]-Piperidide; lactam N-11) | 2.4 | 100 to 500 |
| CC[C@H](C)[C@@H]1NC(=O)[C@H](CC(C)C)N(C)C(=O)C[C@@H](C(=O)N2CCCCC2)N(C)C(=O)[C@H](C(C)C)N(C)C(=O)[C@](C)(CC)NC(=O)[C@@H]2CCCN2C(=O)[C@H](CCc2ccc(C(F)(F)F)c(Cl)c2)NC(=O)CN(C)C(=O)[C@H](CC2CCCCC2)N(C)C(=O)CN(C)C(=O)CN(C)C1=O [Compound 620] ([NMeL]I[Sar][Sar][NMeCha][Sar][hPhe(3-Cl-4-CF3)]P[Iva][NMeV][NMeD]-Piperidide; lactam N-11) | 11 | 100 to 500 |
| CC[C@H](C)[C@@H]1NC(=O)[C@H](CC(C)C)N(C)C(=O)C[C@@H](C)N(C)C(=O)[C@H](C2CCCCC2)N(C)C(=O)C2(CCCC2)NC(=O)[C@@H]2CCCN2C(=O)[C@H](CCc2ccc(C(F)(F)F)c(Cl)c2)NC(=O)CN(C)C(=O)[C@H](CC2CCCCC2)N(C)C(=O)CN(C)C(=O)CN(C)C1=O [Compound 629] (cyclo([Ac5c][NMeChg][NMedβ3hAla][NMeL]I[Sar][Sar][NMeCha][Sar][hPhe(3-Cl-4-CF3)]P)) | 10 | 100 to 500 |
| CC[C@H](C)[C@@H]1NC(=O)[C@H](CC(C)C)N(C)C(=O)C[C@@H](C(=O)N2CCCCC2)N(C)C(=O)[C@H](C2CCCCC2)N(C)C(=O)C2(CCCC2)NC(=O)[C@@H]2CCCN2C(=O)[C@H](CCc2ccc(C(F)(F)F)c(Cl)c2)NC(=O)CN(C)C(=O)[C@H](CCCCC(F)F)N(C)C(=O)CN(C)C(=O)CN(C)C1=O [Compound 631] ([NMeL]I[Sar][Sar][NMeNle(6-CHF2)][Sar][hPhe(3-Cl-4-CF3)]P[Ac5c][NMeChg][NMeD]-Piperidide; lactam N-11) | 1 | 100 to 500 |
| C=CC[C@]1(C)NC(=O)[C@@H]2CCCN2C(=O)[C@H](CCc2ccc(C(F)(F)F)c(Cl)c2)NC(=O)CN(C)C(=O)[C@H](CC2CCCCC2)N(C)C(=O)CN(C)C(=O)CN(C)C(=O)[C@H]([C@@H](C)CC)NC(=O)[C@H](CC(C)C)N(C)C(=O)C[C@@H](C)N(C)C(=O)[C@H](C(C)C)N(C)C1=O [Compound 644] (cyclo(I[Sar][Sar][NMeCha][Sar][hPhe(3-Cl-4-CF3)]P[X2][NMeV][NMedβ3hAla][NMeL])) | 17 | 100 to 500 |
| CC[C@H](C)[C@@H]1NC(=O)[C@H](CC(F)(F)F)N(C)C(=O)C[C@@H](C(=O)N2CCCC2)N(C)C(=O)[C@H](C2CCCCC2)N(C)C(=O)C2(CCCC2)NC(=O)[C@@H]2CCCN2C(=O)[C@H](CCc2ccc(C(F)(F)F)c(Cl)c2)NC(=O)CN(C)C(=O)[C@H](CC2CCCCC2)N(C)C(=O)CN(C)C(=O)CN(C)C1=O [Compound 647] ([NMeAbu(4,4,4-F3)]I[Sar][Sar][NMeCha][Sar][hPhe(3-Cl-4-CF3)]P[Ac5c][NMeChg][NMeD]-Pyrrolidide; lactam N-11) | 0.58 | 20 to 50 |
| CC[C@H](C)[C@@H]1NC(=O)[C@H](CCOC)N(C)C(=O)C[C@@H](C(=O)N2CCCCC2)N(C)C(=O)[C@H](C2CCCCC2)N(C)C(=O)C2(CCCC2)NC(=O)[C@@H]2CCCN2C(=O)[C@H](CCc2ccc(C(F)(F)F)c(Cl)c2)NC(=O)CN(C)C(=O)[C@H](CC2CCCCC2)N(C)C(=O)CN(C)C(=O)CN(C)C1=O [Compound 650] ([NMehSer](Me)I[Sar][Sar][NMeCha][Sar][hPhe(3-Cl-4-CF3)]P[Ac5c][NMeChg][NMeD]-Piperidide; lactam N-11) | 0.6 | 50 to 100 |
| CC[C@H](C)[C@@H]1NC(=O)[C@H](CC(C)C)N(C)C(=O)C[C@@H](C(=O)N2CCCCC2)N(C)C(=O)[C@H](C2CCCCC2)N(C)C(=O)C2(CCCC2)NC(=O)[C@@H]2COCCN2C(=O)[C@H](CCc2ccc(C(F)(F)F)c(Cl)c2)NC(=O)CN(C)C(=O)[C@H](CC2CCCCC2)N(C)C(=O)CN(C)C(=O)CN(C)C1=O [Compound 662] ([NMeL]I[Sar][Sar][NMeCha][Sar][hPhe(3-Cl-4-CF3)][Morpholine(3S-CO)][Ac5c][NMeChg][NMeD]-Piperidide; lactam N-11) | 3.2 | 50 to 100 |
| CC[C@H](C)[C@@H]1NC(=O)[C@H](CC(F)(F)F)N(C)C(=O)C[C@@H](C(=O)N2C3CCC2COC3)N(C)C(=O)[C@H](C2CCCCC2)N(C)C(=O)C2(CCCC2)NC(=O)[C@@H]2CCCN2C(=O)[C@H](CCc2ccc(C(F)(F)F)c(Cl)c2)NC(=O)CN(C)C(=O)[C@H](Cc2ccc(C)cc2)N(C)C(=O)CN(C)C(=O)CN(C)C1=O [Compound 683] ([NMeAbu(4,4,4-F3)]I[Sar][Sar][NMePhe(4-Me)][Sar][hPhe(3-Cl-4-CF3)]P[Ac5c][NMeChg][NMeD]-{3Oxa8azabicyclo(3.2.1)octane}; lactam N-11) | 0.61 | 50 to 100 |
| CC(C)C[C@H]1C(=O)N[C@@H](CC2CC2)C(=O)N(C)CC(=O)N(C)CC(=O)N(C)[C@@H](CC2CCCCC2)C(=O)N(C)CC(=O)N[C@@H](CCc2ccc(C(F)(F)F)c(Cl)c2)C(=O)N2CCC[C@H]2C(=O)NC2(CCCC2)C(=O)N(C)[C@@H](C2CCCCC2)C(=O)N(C)[C@H](C(=O)N2CCCCC2)CC(=O)N1C [Compound 689] ([NMeL][Ala(cPr)][Sar][Sar][NMeCha][Sar][hPhe(3-Cl-4-CF3)]P[Ac5c][NMeChg][NMeD]-Piperidide; lactam N-11) | 2.1 | 100 to 500 |
| CC[C@H](C)[C@@H]1NC(=O)[C@H](COC2CCC2)N(C)C(=O)C[C@@H](C(=O)N2CCCCC2)N(C)C(=O)[C@H](C2CCCCC2)N(C)C(=O)C2(CCCC2)NC(=O)[C@@H]2CCCN2C(=O)[C@H](CCc2ccc(C(F)(F)F)c(Cl)c2)NC(=O)CN(C)C(=O)[C@H](CC2CCCCC2)N(C)C(=O)CN(C)C(=O)CN(C)C1=O [Compound 699] ([NMeS](Cyclobutyl)I[Sar][Sar][NMeCha][Sar][hPhe(3-Cl-4-CF3)]P[Ac5c][NMeChg][NMeD]-Piperidide; lactam N-11) | 0.83 | 50 to 100 |
| CC[C@H](C)[C@@H]1NC(=O)[C@H](C2CCC2)N(C)C(=O)C[C@@H](C(=O)N2C3CCC2COC3)N(C)C(=O)[C@H](C2CCCCC2)N(C)C(=O)C2(CCCC2)NC(=O)[C@@H]2CCCN2C(=O)[C@H](CCc2ccc(C(F)(F)F)c(Cl)c2)NC(=O)CN(C)C(=O)[C@H](CC2CCCCC2)N(C)C(=O)CN(C)C(=O)CN(C)C1=O [Compound 701] ([NMeGly(cBu)]I[Sar][Sar][NMeCha][Sar][hPhe(3-Cl-4-CF3)]P[Ac5c][NMeChg][NMeD]-{3Oxa8azabicyclo(3.2.1)octane}; lactam N-11) | 0.69 | 50 to 100 |
| CC[C@H](C)[C@@H]1NC(=O)[C@H](CC(C)C)N(C)C(=O)C[C@@H](C)NC(=O)[C@H]([C@@H](C)CC)N(C)C(=O)C2(CCCC2)NC(=O)[C@@H]2CCCN2C(=O)[C@H](CCc2ccc(C(F)(F)F)c(Cl)c2)NC(=O)CN(C)C(=O)[C@H](CC2CCCCC2)N(C)C(=O)CN(C)C(=O)CN(C)C1=O [Compound 708] (cyclo([Ac5c][NMeI][d(β3hA)][NMeL]I[Sar][Sar][NMeCha][Sar][hPhe(3-Cl-4-CF3)]P)) | 11 | 50 to 100 |
| CC[C@H](C)[C@@H]1NC(=O)[C@H](CC(C)C)N(C)C(=O)C[C@@H](C(=O)N2CCCCC2)N(C)C(=O)[C@H](C(C)C)N(C)C(=O)C2(CCC2)NC(=O)[C@@H]2CCCN2C(=O)[C@H](CCc2ccc(C(F)(F)F)c(Cl)c2)NC(=O)CN(C)C(=O)[C@H](CC2CCCCC2)N(C)C(=O)CN(C)C(=O)CN(C)C1=O [Compound 712] ([NMeL]I[Sar][Sar][NMeCha][Sar][hPhe(3-Cl-4-CF3)]P[Ac4c][NMeV][NMeD]-Piperidide; lactam N-11) | 2.7 | 50 to 100 |
